Tests used:
[1] = tested on: Hs578T (human triple negative breast cancer cell line); test: CellTiter-Glo Luminescent Cell Viability, combined administration of docetaxel (Experimental Example 3); assay type: cell-based
Description: 10 μM of Fexuprazan and 1 μM of Doxorubicin were administered singly and in combination, respectively. As a comparative group, 10 μM of Vonoprazan was administered singly or in combination with Doxorubicin. At this time, 0.1% DMSO was used as a solvent for each composition. Further, 0.1% DMSO was used as a vehicle control. Each experimental group was repeated twice. Plates treated with the compound at respective concentrations were incubated in a 5% CO2 incubator at 37° C. for 48 hours. […] The reaction was performed at room temperature in a dark room for 10 minutes, and luminescence was measured using a Flexstation3 multi-mode microplate reader. The luciferase enzyme activity, representing the amount of ATP, was measured by a chemiluminescence method according to CellTiter-Glo® Luminescent Cell Viability instructions, and the inhibitory activity was calculated. […]
Hs578T (human triple negative breast cancer cell line) was incubated in a 96 well clear bottom plate and then stabilized for 24 hours. […] After incubating in a 5% CO2 incubator at 37° C. for 48 hours, the luciferase enzyme activity, representing the amount of ATP, was measured by a chemiluminescence method according to CellTiter-Glo® Luminescent Cell Viability instructions, and the inhibitory activity was calculated. The respective results were analyzed using Microsoft Excel, and significance was confirmed through an unpaired t test in Graphpad Prism software.

[2] = tested on: Hs578T (human triple-negative breast cancer cell line); test: CellTiter-Glo Luminescent Cell Viability, combined administration of Doxorubicin (Experimental Example 1); assay type: cell-based; conditions: for antitumor effect in combination with Doxorubicin compared to administration alone / synergistic effect with Doxorubicin: 10 μM with 1 μM Doxorubicin, Table 1 and FIG. 1; for viability at 10 µM: single agent 10.0 μM, no Doxorubicin
Description: (§1) In order to confirm the anticancer efficacy when Fexuprazan and Doxorubicin were administered in combination, cell proliferation was measured for Hs578T (human triple-negative breast cancer cell line) by a CellTiter-Glo® Luminescent Cell Viability (Promega, Catalog #G7571) method. The above evaluation was performed by a method in which when the luciferase enzyme was activated by ATP leaked from living cells, it reacted with a luciferin substrate, and the enzyme activity at this time was measured to confirm the cell viability.
(§2) Specifically, 100 μL of cell culture medium (RPMI medium, 10% FBS, 1% P/S, 4.5 g/L D-Glucose, 2.383 g/L HEPES Buffer, L-Glutamine, 1.5 g/L Sodium Bicarbonate, 110 mg/L Sodium pyruvate) was used and each cancer cell line was prepared in a white clear-bottom 96-well microplate. 10 μM of Fexuprazan and 1 μM of Doxorubicin were administered singly and in combination, respectively. As a comparative group, 10 μM of Vonoprazan was administered singly or in combination with Doxorubicin. At this time, 0.1% DMSO was used as a solvent for each composition. Further, 0.1% DMSO was used as a vehicle control. Each experimental group was repeated twice. Plates treated with the compound at respective concentrations were incubated in a 5% CO2 incubator at 37° C. for 48 hours. 100 μL/well of the substrate aqueous solution containing luciferin was added to a white clear-bottom 96 well microplate to initiate the enzymatic reaction. The reaction was performed at room temperature in a dark room for 10 minutes, and luminescence was measured using a Flexstation3 multi-mode microplate reader. The luciferase enzyme activity, representing the amount of ATP, was measured by a chemiluminescence method according to CellTiter-Glo® Luminescent Cell Viability instructions, and the inhibitory activity was calculated. The results of each compound were analyzed using Microsoft Excel. Compound concentrations were converted into logarithmic values using GraphPad Prism software and expressed on the graph.

Hs578T cell line = test: CellTiter-Glo Luminescent Cell Viability, optimal molar ratio for combination use with Doxorubicin (Experimental Example 2); assay type: cell-based, human
Description: as §1
as §2, with “Further, 0.1% DMSO was used as a vehicle control. Each experimental group was repeated twice. Plates treated with the compound at respective concentrations were incubated in a 5% CO2 incubator at 37° C. for 48 hours. 100 μL/well of the substrate aqueous solution containing luciferin was added to a white clear-bottom 96 well microplate to initiate the enzymatic reaction.” left out, “Compound concentrations were converted into logarithmic values using GraphPad Prism software and expressed on the graph.” left out
In order to confirm the optimal combination ratio of Fexuprazan to Doxorubicin, cell proliferation was measured using a CellTiter-Glo® Luminescent Cell Viability (Promega, Catalog #G7571) method in the same manner as in Experimental Example 1. […] The cells were incubated in a 5% CO2 incubator at 37° C. for 48 hours, the luciferase enzyme activity, representing the amount of ATP, was measured by a chemiluminescence method according to CellTiter-Glo® Luminescent Cell Viability instructions, and the inhibitory activity of the compound according to this purpose was calculated. […]

[3] = Homo sapiens, Hs-578T, Doxorubicin 1.0 μM alone, 48 hours, read-out: Relative cell viability (%)
[4] = Homo sapiens, Hs-578T, 48 hours, read-out: Relative cell viability (%)

CC(=O)O[C@@]12CO[C@@H]1C[C@H](O)[C@@]1(C)C(=O)[C@H](O)C3=C(C)[C@@H](OC(=O)[C@H](O)[C@@H](NC(=O)OC(C)(C)C)c4ccccc4)C[C@@](O)([C@@H](OC(=O)c4ccccc4)[C@H]21)C3(C)C [Docetaxel, docetaxel]
viability at 0.001 µM ([1]; Homo sapiens, Hs-578T, Docetaxel 1.0 nM alone, 48 hours, read-out: Relative cell viability (%)): 88.3% | viability at 0.01 µM ([1]; Homo sapiens, Hs-578T, Docetaxel 10.0 nM alone, 48 hours, read-out: Relative cell viability (%)): 49.3% | synergistic effect on the antitumor effect relative to Esomeprazole ([1]; docetaxel 1 nM and 10 nM combined with 10 μM Fexuprazan, Table 3 and FIG. 4): synergistic effect

COc1cccc2c1C(=O)c1c(O)c3c(c(O)c1C2=O)C[C@@](O)(C(=O)CO)C[C@@H]3O[C@H]1C[C@H](N)[C@H](O)[C@H](C)O1 [Doxorubicin]
viability at 1 µM [2, 3]: 70.6% | viability at 1 µM (Hs578T cell line; [3]): 50%

CNCc1cn(S(=O)(=O)c2cccc(F)c2)c(-c2ccc(F)cc2F)c1OC [Fexuprazan, 1-(5-(2,4-difluorophenyl)-1-((3-fluorophenyl)sulfonyl)-4-methoxy-1H-pyrrol-3-yl)-N-methylmethanamine]
antitumor effect in combination with Doxorubicin compared to administration alone / synergistic effect with Doxorubicin [2]: superior antitumor effect | viability at 10 µM [2, 4]: 100% | synergistic effect with Doxorubicin, compared to the combined effect of Esomeprazole (Hs578T cell line; molar ratio of Doxorubicin and Fexuprazan 1:5 or more): synergistic effects | synergistic effect with Doxorubicin, compared to the combined effect of Esomeprazole (Hs578T cell line; molar ratios of Doxorubicin and Fexuprazan 1:10 or more): especially superior

CNCc1cc(-c2ccccc2F)n(S(=O)(=O)c2cccnc2)c1 [Vonoprazan]
antitumor effect in combination with Doxorubicin compared to administration alone / synergistic effect with Doxorubicin [2]: no synergistic effect | viability at 10 µM [2, 4]: 92.3%

Reference: patent publication US20250152555A1, “Pharmaceutical Composition for Preventing or Treating Triple-Negative Breast Cancer” (Daewoong Pharmaceutical Co., Ltd., priority 2021, published 2025)
